Data on 25 compounds can be found in ChEMBL document CHEMBL1140967, “Regiospecific microwave-assisted synthesis and cytotoxic activity against human breast cancer cells of (RS)-6-substituted-7- or 9-(2,3-dihydro-5H-1,4-benzodioxepin-3-yl)-7H- or -9H-purines” (Eur J Med Chem, 2008).

The test system of assay [1] is MCF7. Kind of assay: Antiproliferative activity against human MCF7 cells after 6 days by SRB assay. The settings on record: MCF7, 144 h.
Assay [2] has as its system MCF7. In words: Cell cycle arrest in human MCF7 cells assessed as accumulation at G0/G1 phase at cytotoxic IC50 after 48 hrs by FACS assay. It counts as functional.
For assay [3], the system named is MCF7. Kind of assay: Cell cycle arrest in human MCF7 cells assessed as accumulation at S phase at cytotoxic IC50 after 48 hrs by FACS assay. It counts as functional. A general note: In flow cytometry, cells or beads pass a laser one at a time.
Assay [4] relates to MCF7. In words: Cell cycle arrest in human MCF7 cells assessed as accumulation at G2/M phase at cytotoxic IC50 after 48 hrs by FACS assay. It counts as functional.
In assay [5] the test system is MCF7. Kind of assay: Induction of apoptosis in human MCF7 cells at cytotoxic IC50 after 48 hrs by Annexin-V based assay. It counts as functional.

The compound `Fc1ccc(Sc2ncnc3c2ncn3C2COc3ccccc3CO2)cc1` (racemic) came in with an IC50 in the assay on MCF7 [1] of 11.2 µM.
Still for that read-out and setting: to `C=CCOc1ncnc2[nH]cnc12` belongs 44.7 µM.
For `Clc1ccc(Sc2ncnc3[nH]cnc23)c(Cl)c1`, the IC50 in the assay on MCF7 [1] was determined as 21.4 µM.
Same read-out and setting: to `Clc1ccc(Sc2ncnc3c2ncn3C2COc3ccccc3CO2)c(Cl)c1` (racemic) belongs 12 µM; to `Fc1ccc(Sc2ncnc3ncn(C4COc5ccccc5CO4)c23)cc1` (racemic), 14.1 µM; to `c1ccc(Sc2ncnc3ncn(C4COc5ccccc5CO4)c23)cc1` (racemic), 15.6 µM.
On the same count and under the same terms, to `Fc1ccc(Sc2ncnc3[nH]cnc23)cc1` belongs 31.6 µM; to `c1ccc2c(c1)COC(n1cnc3c(OCC4CCCCC4)ncnc31)CO2` (racemic), 11.6 µM; to `c1ccc(Sc2ncnc3[nH]cnc23)cc1`, 31 µM.
Still for that read-out and setting: to `c1nc(OCC2CCCCC2)c2nc[nH]c2n1` belongs 32.3 µM.
On to `CSc1ncnc2c1ncn2C1COc2ccccc2CO1` (racemic), for which the IC50 in the assay on MCF7 [1] turned out to be 24 µM.
Still for that read-out and setting: to `c1ccc(Oc2ncnc3[nH]cnc23)cc1` belongs 28.4 µM.
With `C=CCOc1ncnc2c1ncn2C1COc2ccccc2CO1` (racemic), the Activity in the assay on MCF7 [2] stood at 55.63%; in the assay with MCF7 [3], 37%; in the assay with MCF7 [4], 7.37%; with MCF7 [5], 44.47%. The compound also showed an IC50 in the assay on MCF7 [1] of 5.04 µM.
Taken in the same sequence, the figures for `c1ccc(Sc2ncnc3c2ncn3C2COc3ccccc3CO2)cc1` (racemic) were 59.1%, 26.82%, 11.08%, 73.37% and 7.12 µM.
For `O=c1ccn(C2COc3ccccc3CO2)c(=O)[nH]1` (configuration not stated), the IC50 with MCF7 [1] is 5 µM.
Compound `CC(=O)O[C@H]1C(=O)[C@@]2(C)[C@H]([C@H](OC(=O)c3ccccc3)[C@]3(O)C[C@H](OC(=O)[C@H](O)[C@@H](NC(=O)c4ccccc4)c4ccccc4)C(C)=C1C3(C)C)[C@]1(OC(C)=O)CO[C@@H]1C[C@@H]2O` [PACLITAXEL] had an Activity with MCF7 [5] of 43%.
The compound `O=c1[nH]cc(F)c(=O)[nH]1` [FLUOROURACIL] displayed an IC50 in the assay with MCF7 [1] of 4.32 µM.
Still for that read-out and setting: to `CSc1ncnc2ncn(C3COc4ccccc4CO3)c12` (racemic) belongs 31.8 µM; to `c1ccc2c(c1)COC(n1cnc3ncnc(OCC4CCCCC4)c31)CO2` (racemic), 13.4 µM.
In the case of `Clc1ccc(Sc2ncnc3ncn(C4COc5ccccc5CO4)c23)c(Cl)c1` (racemic), the Activity amounted to 58.1% in the assay on MCF7 [2], 22.73% in the assay with MCF7 [3], 19.16% in the assay with MCF7 [4] and 65.28% in the assay with MCF7 [5]. Further, it took 8.4 µM to reach half-maximal inhibition in the assay with MCF7 [1] (IC50).
`c1ccc(Oc2ncnc3c2ncn3C2COc3ccccc3CO2)cc1` (racemic): half-maximal inhibition in the assay with MCF7 [1] (IC50) required 24.7 µM.
In the assay on MCF7 [1], `CSc1ncnc2[nH]cnc12` returned an IC50 of 23.6 µM.
On the same count and under the same terms, to `Nc1nc(OCC2CCCCC2)c2nc[nH]c2n1` belongs 24.2 µM.
Still for that read-out and setting: to `c1ccc(Oc2ncnc3ncn(C4COc5ccccc5CO4)c23)cc1` (racemic) belongs 21.1 µM; to `C=CCOc1ncnc2ncn(C3COc4ccccc4CO3)c12` (racemic), 20.9 µM.

One may read the IC50 as the point on the concentration scale where inhibition reaches its midpoint. A higher IC50 goes with lower potency.
